In ChEMBL document CHEMBL1150977, “A quantitative analysis of kinase inhibitor selectivity” (Nat Biotechnol, 2008) one finds Kd data, which are given here for 5 molecules.

Assay [1] deals with Mitogen-activated protein kinase 8 (Homo sapiens, UniProt P45983).
Assay [2] has as its target Tyrosine-protein kinase ABL1 (Homo sapiens, UniProt P00519, E255K).
A further assay deals with Ephrin type-A receptor 2 (Homo sapiens, UniProt P29317).
Assay [3] has as its target T1, MAP/microtubule affinity-regulating kinase 4 (Homo sapiens, UniProt Q96L34).
T1 sequence (Q96L34 whole entry): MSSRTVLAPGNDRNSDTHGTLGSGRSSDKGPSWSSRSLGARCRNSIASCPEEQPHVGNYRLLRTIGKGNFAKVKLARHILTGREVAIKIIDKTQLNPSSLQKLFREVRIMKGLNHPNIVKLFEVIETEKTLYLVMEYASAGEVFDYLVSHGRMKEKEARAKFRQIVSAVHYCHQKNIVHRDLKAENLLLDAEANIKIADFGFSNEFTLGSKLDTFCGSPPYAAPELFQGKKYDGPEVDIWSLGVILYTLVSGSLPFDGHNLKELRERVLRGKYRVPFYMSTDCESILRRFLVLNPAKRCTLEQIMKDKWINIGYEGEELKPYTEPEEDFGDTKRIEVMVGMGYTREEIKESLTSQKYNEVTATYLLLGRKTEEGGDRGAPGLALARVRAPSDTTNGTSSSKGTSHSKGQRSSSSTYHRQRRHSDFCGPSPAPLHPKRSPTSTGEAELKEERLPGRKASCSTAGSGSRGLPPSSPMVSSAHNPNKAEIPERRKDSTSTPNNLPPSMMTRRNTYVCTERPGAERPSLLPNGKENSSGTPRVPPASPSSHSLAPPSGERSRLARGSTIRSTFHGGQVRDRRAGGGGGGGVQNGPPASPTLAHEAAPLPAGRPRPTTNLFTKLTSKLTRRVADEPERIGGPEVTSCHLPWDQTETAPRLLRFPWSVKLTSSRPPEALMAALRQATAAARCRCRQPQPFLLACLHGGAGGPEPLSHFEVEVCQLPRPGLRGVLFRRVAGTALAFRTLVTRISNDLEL

For assay [4], the target named is Serine/threonine-protein kinase pim-1 (Homo sapiens, UniProt P11309).
Chain of Serine/threonine-protein kinase pim-1 (P11309 whole entry): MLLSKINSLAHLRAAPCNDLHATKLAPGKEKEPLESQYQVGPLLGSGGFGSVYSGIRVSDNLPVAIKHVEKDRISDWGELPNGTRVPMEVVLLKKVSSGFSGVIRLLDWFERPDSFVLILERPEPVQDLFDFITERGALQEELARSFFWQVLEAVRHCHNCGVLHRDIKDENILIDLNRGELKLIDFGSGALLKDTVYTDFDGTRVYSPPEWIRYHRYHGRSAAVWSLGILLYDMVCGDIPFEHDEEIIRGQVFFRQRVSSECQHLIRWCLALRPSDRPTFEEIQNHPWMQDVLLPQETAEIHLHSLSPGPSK
Assay [5] has as its target Mast/stem cell growth factor receptor Kit (Homo sapiens, UniProt P10721, T670I/V559D).
The target of assay [6] is Myosin light chain kinase 2, skeletal/cardiac muscle (Homo sapiens, UniProt Q9H1R3).
Chain of Myosin light chain kinase 2, skeletal/cardiac muscle (Q9H1R3 whole entry): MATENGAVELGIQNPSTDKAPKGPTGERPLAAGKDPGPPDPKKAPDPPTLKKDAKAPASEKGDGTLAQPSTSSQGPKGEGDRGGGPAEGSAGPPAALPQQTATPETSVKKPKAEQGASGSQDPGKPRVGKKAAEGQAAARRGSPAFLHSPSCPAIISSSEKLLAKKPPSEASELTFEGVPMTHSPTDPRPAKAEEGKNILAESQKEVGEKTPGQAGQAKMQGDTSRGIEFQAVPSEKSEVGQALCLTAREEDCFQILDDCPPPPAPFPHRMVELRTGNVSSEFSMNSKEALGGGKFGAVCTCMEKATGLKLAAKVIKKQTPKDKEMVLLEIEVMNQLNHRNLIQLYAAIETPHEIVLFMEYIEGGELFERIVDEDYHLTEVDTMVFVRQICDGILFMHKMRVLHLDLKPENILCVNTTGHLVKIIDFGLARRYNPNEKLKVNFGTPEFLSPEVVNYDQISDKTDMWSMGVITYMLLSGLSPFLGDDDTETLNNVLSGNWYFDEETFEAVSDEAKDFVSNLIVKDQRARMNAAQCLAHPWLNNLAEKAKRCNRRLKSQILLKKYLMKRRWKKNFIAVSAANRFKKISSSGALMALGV
In assay [7] the target is Insulin receptor-related protein (Homo sapiens, UniProt P14616).
Chain of Insulin receptor-related protein (P14616 27-742 limits assumed): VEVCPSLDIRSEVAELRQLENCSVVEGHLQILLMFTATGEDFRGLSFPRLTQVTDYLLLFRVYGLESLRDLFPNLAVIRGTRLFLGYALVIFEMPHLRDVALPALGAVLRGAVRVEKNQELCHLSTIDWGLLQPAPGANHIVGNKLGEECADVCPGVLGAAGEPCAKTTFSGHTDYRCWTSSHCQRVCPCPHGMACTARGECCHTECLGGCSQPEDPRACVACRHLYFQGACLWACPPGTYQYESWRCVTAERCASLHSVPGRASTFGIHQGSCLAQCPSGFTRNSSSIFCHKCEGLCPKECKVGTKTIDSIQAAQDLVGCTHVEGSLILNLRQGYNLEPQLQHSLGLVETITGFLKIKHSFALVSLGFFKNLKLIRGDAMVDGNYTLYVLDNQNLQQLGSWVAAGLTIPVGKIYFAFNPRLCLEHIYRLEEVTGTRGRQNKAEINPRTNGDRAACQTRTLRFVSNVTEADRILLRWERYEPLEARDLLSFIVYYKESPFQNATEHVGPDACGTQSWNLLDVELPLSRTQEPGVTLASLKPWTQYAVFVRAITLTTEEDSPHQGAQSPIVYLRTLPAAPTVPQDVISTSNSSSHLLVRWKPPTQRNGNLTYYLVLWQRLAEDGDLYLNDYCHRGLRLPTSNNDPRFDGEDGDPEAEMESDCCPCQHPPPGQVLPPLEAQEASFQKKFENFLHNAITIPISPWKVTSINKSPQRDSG
Chain of Insulin receptor-related protein (P14616 747-1297 limits assumed): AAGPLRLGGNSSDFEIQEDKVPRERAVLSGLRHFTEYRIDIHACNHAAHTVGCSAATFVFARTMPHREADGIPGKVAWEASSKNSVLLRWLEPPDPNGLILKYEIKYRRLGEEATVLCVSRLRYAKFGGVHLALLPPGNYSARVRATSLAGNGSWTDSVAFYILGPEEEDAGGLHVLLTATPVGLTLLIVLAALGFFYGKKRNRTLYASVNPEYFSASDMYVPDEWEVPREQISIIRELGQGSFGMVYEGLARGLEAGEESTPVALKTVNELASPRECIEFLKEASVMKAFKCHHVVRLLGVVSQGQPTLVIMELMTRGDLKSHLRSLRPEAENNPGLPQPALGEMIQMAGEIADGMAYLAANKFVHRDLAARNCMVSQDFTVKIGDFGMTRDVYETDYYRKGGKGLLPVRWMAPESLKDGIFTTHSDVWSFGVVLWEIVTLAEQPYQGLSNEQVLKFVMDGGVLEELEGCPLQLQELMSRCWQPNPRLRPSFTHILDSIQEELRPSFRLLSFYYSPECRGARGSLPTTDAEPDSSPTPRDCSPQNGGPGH
In assay [8] the target is T2, Tyrosine-protein kinase TXK (Homo sapiens, UniProt P42681).
T2 sequence (P42681 whole entry): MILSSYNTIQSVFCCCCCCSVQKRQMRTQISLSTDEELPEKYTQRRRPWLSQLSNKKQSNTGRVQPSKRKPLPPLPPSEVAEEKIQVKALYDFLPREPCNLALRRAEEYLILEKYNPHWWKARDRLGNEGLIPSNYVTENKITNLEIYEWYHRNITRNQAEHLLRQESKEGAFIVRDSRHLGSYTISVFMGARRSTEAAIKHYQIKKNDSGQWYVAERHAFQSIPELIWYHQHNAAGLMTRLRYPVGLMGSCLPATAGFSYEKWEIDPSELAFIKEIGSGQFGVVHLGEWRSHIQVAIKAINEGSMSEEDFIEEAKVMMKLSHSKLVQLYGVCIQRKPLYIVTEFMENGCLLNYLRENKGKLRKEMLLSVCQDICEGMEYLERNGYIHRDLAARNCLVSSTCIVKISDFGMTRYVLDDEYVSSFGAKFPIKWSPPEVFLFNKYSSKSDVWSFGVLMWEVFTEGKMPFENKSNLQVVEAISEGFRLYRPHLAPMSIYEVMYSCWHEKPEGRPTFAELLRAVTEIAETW

For assay [9], the target named is STE20-like serine/threonine-protein kinase (Homo sapiens, UniProt Q9H2G2).
Assay [10] addresses T3, Serine/threonine-protein kinase D3 (Homo sapiens, UniProt O94806).
T3 sequence (O94806 whole entry): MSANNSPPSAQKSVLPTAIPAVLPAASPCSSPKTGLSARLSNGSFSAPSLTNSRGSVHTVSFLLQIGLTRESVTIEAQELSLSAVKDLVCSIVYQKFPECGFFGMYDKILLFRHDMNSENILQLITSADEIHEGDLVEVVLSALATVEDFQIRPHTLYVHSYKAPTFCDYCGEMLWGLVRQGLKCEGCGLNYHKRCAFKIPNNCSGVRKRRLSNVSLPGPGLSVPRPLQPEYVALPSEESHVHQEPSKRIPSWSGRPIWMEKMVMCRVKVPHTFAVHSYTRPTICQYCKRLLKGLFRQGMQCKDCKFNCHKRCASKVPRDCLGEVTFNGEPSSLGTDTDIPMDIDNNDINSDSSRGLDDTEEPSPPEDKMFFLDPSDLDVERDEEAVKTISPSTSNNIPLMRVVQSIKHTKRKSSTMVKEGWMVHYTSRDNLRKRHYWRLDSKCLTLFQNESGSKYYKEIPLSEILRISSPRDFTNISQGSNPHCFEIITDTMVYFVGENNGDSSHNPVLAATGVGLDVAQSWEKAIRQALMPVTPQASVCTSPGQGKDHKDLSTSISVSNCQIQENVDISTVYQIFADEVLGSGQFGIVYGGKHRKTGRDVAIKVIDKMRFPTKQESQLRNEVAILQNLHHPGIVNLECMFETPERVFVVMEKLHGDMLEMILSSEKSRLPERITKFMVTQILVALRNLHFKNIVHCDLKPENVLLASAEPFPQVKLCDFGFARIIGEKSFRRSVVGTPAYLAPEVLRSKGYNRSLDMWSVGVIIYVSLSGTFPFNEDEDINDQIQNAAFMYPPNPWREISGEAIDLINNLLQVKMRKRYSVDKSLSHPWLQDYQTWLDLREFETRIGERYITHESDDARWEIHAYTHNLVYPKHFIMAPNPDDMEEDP

Chain of Mitogen-activated protein kinase 8 (P45983 whole entry): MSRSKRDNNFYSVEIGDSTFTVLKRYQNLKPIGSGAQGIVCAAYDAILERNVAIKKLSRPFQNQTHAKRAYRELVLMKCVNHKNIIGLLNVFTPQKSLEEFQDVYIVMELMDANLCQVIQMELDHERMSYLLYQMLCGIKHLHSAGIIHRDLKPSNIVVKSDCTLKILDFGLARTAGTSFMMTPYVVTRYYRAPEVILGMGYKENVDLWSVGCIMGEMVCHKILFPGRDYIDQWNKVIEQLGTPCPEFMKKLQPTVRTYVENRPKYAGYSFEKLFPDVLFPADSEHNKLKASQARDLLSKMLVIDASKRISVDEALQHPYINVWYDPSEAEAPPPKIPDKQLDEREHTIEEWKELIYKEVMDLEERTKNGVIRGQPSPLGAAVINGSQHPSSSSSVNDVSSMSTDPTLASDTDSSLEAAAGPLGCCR
Chain of Mast/stem cell growth factor receptor Kit (P10721 26-976 V559D/T670I limits assumed): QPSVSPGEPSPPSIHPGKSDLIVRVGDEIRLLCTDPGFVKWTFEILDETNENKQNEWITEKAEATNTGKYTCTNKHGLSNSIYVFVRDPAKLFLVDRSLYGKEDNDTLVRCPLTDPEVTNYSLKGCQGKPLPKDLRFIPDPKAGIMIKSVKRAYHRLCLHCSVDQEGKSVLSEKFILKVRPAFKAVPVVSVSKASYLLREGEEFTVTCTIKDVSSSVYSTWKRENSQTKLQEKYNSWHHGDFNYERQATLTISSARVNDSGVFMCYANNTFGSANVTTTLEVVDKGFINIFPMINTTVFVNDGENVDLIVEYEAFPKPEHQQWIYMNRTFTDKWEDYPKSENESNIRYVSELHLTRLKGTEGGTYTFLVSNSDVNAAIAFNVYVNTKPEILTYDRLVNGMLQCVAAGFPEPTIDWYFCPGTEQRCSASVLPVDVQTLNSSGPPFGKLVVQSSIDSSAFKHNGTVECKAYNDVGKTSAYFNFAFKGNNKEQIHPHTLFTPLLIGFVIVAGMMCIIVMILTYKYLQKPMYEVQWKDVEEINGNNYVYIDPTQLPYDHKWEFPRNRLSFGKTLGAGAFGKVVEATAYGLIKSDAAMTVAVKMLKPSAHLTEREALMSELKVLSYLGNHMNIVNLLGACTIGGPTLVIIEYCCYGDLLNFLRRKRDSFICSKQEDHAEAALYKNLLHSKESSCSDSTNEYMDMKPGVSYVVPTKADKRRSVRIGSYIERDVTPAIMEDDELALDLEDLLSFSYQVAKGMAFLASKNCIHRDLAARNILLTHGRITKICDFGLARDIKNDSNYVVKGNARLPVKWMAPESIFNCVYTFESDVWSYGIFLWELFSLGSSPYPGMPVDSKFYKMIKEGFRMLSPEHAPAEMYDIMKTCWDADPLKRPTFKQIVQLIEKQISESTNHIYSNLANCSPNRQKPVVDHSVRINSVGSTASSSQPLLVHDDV
Chain of Tyrosine-protein kinase ABL1 (P00519 whole entry E255K): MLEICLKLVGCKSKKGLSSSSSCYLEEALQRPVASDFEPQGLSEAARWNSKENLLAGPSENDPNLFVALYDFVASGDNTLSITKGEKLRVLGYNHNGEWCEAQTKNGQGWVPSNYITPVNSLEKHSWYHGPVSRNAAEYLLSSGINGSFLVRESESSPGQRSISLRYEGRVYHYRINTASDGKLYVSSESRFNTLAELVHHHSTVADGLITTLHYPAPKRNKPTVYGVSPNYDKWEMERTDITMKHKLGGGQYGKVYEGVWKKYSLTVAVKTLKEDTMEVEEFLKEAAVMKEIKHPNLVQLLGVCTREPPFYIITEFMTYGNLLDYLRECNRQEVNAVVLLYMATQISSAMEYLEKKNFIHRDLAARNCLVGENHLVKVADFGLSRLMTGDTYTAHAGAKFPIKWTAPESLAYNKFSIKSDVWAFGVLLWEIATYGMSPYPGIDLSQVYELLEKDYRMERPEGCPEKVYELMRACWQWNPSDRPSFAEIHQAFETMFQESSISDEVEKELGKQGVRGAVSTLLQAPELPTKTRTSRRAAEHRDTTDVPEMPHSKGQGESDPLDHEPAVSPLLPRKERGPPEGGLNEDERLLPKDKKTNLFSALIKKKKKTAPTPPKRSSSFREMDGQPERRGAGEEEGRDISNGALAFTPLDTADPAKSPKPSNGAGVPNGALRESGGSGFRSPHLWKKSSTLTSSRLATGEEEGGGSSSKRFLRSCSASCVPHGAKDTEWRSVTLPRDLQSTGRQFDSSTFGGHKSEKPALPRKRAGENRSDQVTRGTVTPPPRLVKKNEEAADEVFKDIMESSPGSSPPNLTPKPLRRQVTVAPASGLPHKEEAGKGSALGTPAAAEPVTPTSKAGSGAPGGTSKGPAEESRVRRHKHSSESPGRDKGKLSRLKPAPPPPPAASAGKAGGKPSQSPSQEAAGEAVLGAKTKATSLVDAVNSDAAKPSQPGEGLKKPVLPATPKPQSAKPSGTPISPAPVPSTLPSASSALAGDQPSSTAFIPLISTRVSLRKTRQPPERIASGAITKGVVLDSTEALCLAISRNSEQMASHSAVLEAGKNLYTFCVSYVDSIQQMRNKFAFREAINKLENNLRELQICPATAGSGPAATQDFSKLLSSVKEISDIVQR

What is called Kd is the concentration at which binding is half-saturated. Read a low Kd as higher affinity. In the case of `COCC(=O)NC/C=C/c1ccc2ncnc(Nc3ccc(Oc4ccc(C)nc4)c(C)c3)c2c1` [CP-724714], the Kd (in assay [1]; in [2]; on Ephrin type-A receptor 2; in [3]; in [4]; in [5]) was above 10 µM each time. Also, the Kd in assay [6], in [7], in assay [8], in assay [9] and in assay [10] was above 10 µM throughout.

As to `Nc1nc(Nc2ccc(S(N)(=O)=O)cc2)nn1C(=O)c1c(F)cccc1F` [JNJ-7706621], the Kd on Ephrin type-A receptor 2 was above 10 µM; in assay [6] it was above 10 µM; in assay [7], above 10 µM; in assay [8] it was above 10 µM; in assay [9], 0.048 µM.

With `CCOc1cc2ncc(C#N)c(Nc3ccc(F)c(Cl)c3)c2cc1NC(=O)/C=C/CN(C)C` [PELITINIB], the Kd (in [1]; at Ephrin type-A receptor 2; in assay [3]; in assay [4]; in assay [5]; in [7]) was above 10 µM each time. The Kd in [8] was 5.5 µM; in [10], above 10 µM.

With `Oc1ccc(-c2nc(-c3ccncc3)c(-c3ccc(F)cc3)[nH]2)cc1` [SB-202190], the Kd in assay [1] was 2.4 µM; in [2] it was above 10 µM; at Ephrin type-A receptor 2 it was above 10 µM; in [3] it was above 10 µM; in assay [4] it was above 10 µM; in assay [5], above 10 µM. In addition, the Kd in assay [6] is above 10 µM; in assay [7], above 10 µM; in assay [8], above 10 µM; in assay [9], 3.2 µM; in assay [10], above 10 µM.

Turning to `NC(=O)c1ccc(-c2nc(-c3ccc4c(c3)OCO4)c(-c3ccccn3)[nH]2)cc1` [SB-431542], the Kd (in assay [1]; in [2]; at Ephrin type-A receptor 2; in [3]; in [4]; in assay [5]) was above 10 µM throughout. Also, the Kd in assay [6], in [7], in assay [8] and in assay [9] was above 10 µM throughout.
